Reference: patent EP0516861A1, “PYRIDONECARBOXYLIC ACID DERIVATIVE” (BANYU PHARMACEUTICAL CO., LTD., priority 1990, dated 1992)
Values after ≈ are worked out from the molar mass of the structure shown. Structures can show the parent of a compound that is named as a salt. Where two headings read alike, the source gives them in different places.

Assays:
S.aureus BB5769 = assay: In vitro antibacterial activity, agar plate dilution method; assay type: cell-based; settings: Staphylococcus aureus, MH agar, 10⁶CFU/ml, 16 hours at 37°C, read-out: Minimum inhibitory concentration (MIC) S.aureus BB5769
Protocol: (§1) One platinum loopful portions of a test strain (quantity of each strain inoculated : 10⁶CFU/ml) cultured overnight in Mueller Hinton broth were inoculated respectively into MH agars containing an antibacterial agent in various concentrations. After 16 hours culture at 37°C, minimum inhibitory concentration (MIC: µg/ml) was measured.

S.aureus BB5703 = assay: as above; assay type: cell-based; settings: Staphylococcus aureus, MH agar, 10⁶CFU/ml, 16 hours at 37°C, read-out: Minimum inhibitory concentration (MIC) S.aureus BB5703
Protocol: as §1

S.aureus JS1 = assay: as above; assay type: cell-based; settings: Staphylococcus aureus, β-lactamase-producing bacterium, MH agar, 10⁶CFU/ml, 16 hours at 37°C, read-out: Minimum inhibitory concentration (MIC) S.aureus JS1
Protocol: as §1

P388/V = assay: Proliferation inhibition, drug-sensitive P388 cells (MTT method); assay type: cell-based, murine; settings: Mus musculus, P388, 72 h, 3 days culture, read-out: IC₅₀ P388/V
Protocol: (§2) Proliferation inhibition effects againt P388/multiple drug - resistant cells were measured using vincristine and adriamycin as comparative compounds.
(§3) In this experiment, a drug - sensitive strain (P388/S) of a murine leukemia cell P388 and a drug - resistant strain (P388/VCR, T. Turuo, H. Iida, S. Tsukagoshi, et al., Cancer Research 42, 4730 - 4733, 1982) were suspended respectively in RPMI 1640 media containing a drug in various concentrations, 10 % fetal bovine serum and 20 µ M β - mercaptoethanol, respectively, and seeded in a 96 - well microtest plate in a number of 10⁴ cells/well, and cultured at 37°C under CO₂ gas for 3 days. Calculation of 50% proliferation inhibition concentration (IC₅₀) was made by the MTT method (M. C. Alley, D. A. Scudiero, A. Monks, et al., Cancer Research 48, 589 - 601, 1988).

P388/VCR = assay: Proliferation inhibition, multiple drug-resistant P388 cells (MTT method); assay type: cell-based, murine; settings: Mus musculus, 72 h, 3 days culture, read-out: IC₅₀ P388/VCR
Protocol: as §2, §3

[1] = Acute toxicity against a mouse; assay type: in vivo, CDF₁ mice; settings: 5 mg/kg intravenously, observation for one week
Protocol: 5 mg/kg portions of the compound of Example 9 were intravenously injected into CDF₁ mice (♀, 5 weeks old) according to a conventional manner, respectively.

P388 = assay: Life-span prolonging effect on P388 leukemia-bearing mice; assay type: in vivo, CDF₁ mice
Protocol: (§4) In this experiment, 10⁶ L1210 cells or 10⁴ P388 cells were intraperitoneally transplanted into CDF₁ mice (♀, 5 weeks old), a drug in the various concentrations was intraperitoneally injected once a day for continuous 10 days from the day after the transplantation, and survival periods after the tumor transplantation were recorded.

L1210 cells = assay: In vitro cytotoxicity against L1210 murine leukemia (proliferation inhibition); assay type: cell-based; settings: Mus musculus, read-out: IC₅₀
Protocol: In this experiment, respective 2 × 10⁴ L1210 cells were cultured at 37°C under 5% CO₂ gas for 3 days in respective RPMI 1640 media containing a drug in various concentrations and 10 % fetal bovine serum, and the numbers of the cells after the culture were counted using a Coulter counter.

DNA topoisomerase I = target: T1, DNA topoisomerase I (Mus musculus, UniProt Q04750); assay: DNA topoisomerase inhibition activity (DNA relaxation, agarose-gel electrophoresis); assay type: biochemical, murine; settings: relaxation of supercoiled pBR 322 plasmid DNA, 37°C for 10 minutes, enzyme from L1210 nuclei; read-out: IC₅₀ DNA topoisomerase I (converted)
T1 construct: obtained by purifying an extract from the nuclei of cells of L1210 murine leukemia by column chromatography; endogenous in cells; host or cells: L1210 murine leukemia cells (nuclear extract, purified on hydroxylapatite / phosphocellulose columns)
T1 sequence (Q04750 1-767): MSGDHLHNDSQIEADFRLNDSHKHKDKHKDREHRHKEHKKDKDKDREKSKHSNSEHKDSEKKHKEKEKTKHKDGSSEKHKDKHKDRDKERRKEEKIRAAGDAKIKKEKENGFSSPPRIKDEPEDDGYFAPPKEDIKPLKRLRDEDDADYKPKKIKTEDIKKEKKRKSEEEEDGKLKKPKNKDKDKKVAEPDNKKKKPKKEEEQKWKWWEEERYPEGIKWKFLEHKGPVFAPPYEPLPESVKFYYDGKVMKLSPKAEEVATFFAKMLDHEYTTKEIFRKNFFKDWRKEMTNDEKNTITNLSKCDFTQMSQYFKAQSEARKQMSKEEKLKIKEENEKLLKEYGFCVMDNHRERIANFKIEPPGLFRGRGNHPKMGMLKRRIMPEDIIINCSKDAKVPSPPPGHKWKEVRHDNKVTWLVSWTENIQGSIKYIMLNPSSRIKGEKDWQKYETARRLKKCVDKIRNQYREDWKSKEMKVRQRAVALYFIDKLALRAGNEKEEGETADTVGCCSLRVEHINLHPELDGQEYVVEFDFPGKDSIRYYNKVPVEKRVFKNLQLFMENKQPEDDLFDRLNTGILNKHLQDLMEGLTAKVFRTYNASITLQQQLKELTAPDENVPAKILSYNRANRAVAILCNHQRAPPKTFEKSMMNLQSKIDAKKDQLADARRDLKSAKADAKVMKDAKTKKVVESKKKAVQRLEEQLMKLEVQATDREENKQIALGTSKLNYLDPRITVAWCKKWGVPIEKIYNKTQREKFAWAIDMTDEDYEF
Protocol: (§5) In this experiment, as enzymes were used DNA topoisomerase I and DNA topoisomerase II obtained by purifying an extract from the nuclei of cells of L1210 murine leukemia by column chromatography using hydroxylapatite and phosphocellulose, respectively, and as a DNA was used supercoiled pBR 322 plasmid DNA.
(§6) Measurement of inhibition effect was made by the method disclosed in a literature, i. e. Okura et al., Biochem. Biophys. Res. Comm. 157, 183 - 189, 1988, namely by warming at 37°C for 10 minutes the supercoiled DNA in DNA topoisomerase I or DNA topoisomerase II solutions containing a drug in various concentrations, and then detecting the resultant topology changes of the DNA as changes of the electrophoretic images in agarose - gel electrophoresis.

DNA topoisomerase II = assay: as above; assay type: biochemical, murine; settings: relaxation of supercoiled pBR 322 plasmid DNA, 37°C for 10 minutes, enzyme from L1210 nuclei
Protocol: as §5, §6

L1210 = assay: Life-span prolonging effect on L1210 leukemia-bearing mice; assay type: in vivo, CDF₁ mice; settings: for effect at an administration quantity of 0.02 mg/kg: life-span prolongation, 0.02 mg/kg intraperitoneal
Protocol: as §4

[2] = dose 0.020 mg/kg intraperitoneally once a day for 10 days
[3] = dose 0.078 mg/kg intraperitoneally once a day for 10 days
[4] = dose 0.313 mg/kg intraperitoneally once a day for 10 days
[5] = 72 h, L1210 cells, cultured 3 days, Coulter counter

MIC (S.aureus BB5769)	MIC (S.aureus BB5703)	MIC (S.aureus JS1)	IC50 (P388/V)	IC50 (P388/VCR)	Structure (SMILES)	IC50 (L1210 cells; [5])	IC50 (DNA topoisomerase I)	IC₅₀ DNA topoisomerase II (DNA topoisomerase II)	Mean survival days L1210 (L1210; [2])	T/C % L1210 (L1210; [2])	Mean survival days L1210 (L1210; [3])	T/C % L1210 (L1210; [3])	Mean survival days L1210 (L1210; [4])	T/C % L1210 (L1210; [4])	effect at an administration quantity of 0.02 mg/kg (L1210)	other results
–	–	–	0.00032 µg/mL (≈ 0.000388 µM)	0.019 µg/mL (≈ 0.023 µM)	CC[C@]1(O)C[C@H]2CN(CCc3c([nH]c4ccccc34)[C@@](C(=O)OC)(c3cc4c(cc3OC)N(C=O)[C@H]3[C@@](O)(C(=O)OC)[C@H](OC(C)=O)[C@]5(CC)C=CCN6CC[C@]43[C@@H]65)C2)C1 [Vincristine, vincristine]	–	–	–	–	–	–	–	–	–	–	–
–	–	–	0.021 µg/mL (≈ 0.0386 µM)	0.063 µg/mL (≈ 0.116 µM)	COc1cccc2c1C(=O)c1c(O)c3c(c(O)c1C2=O)C[C@@](O)(C(=O)CO)C[C@@H]3O[C@H]1C[C@H](N)[C@H](O)[C@H](C)O1 [Adriamycin, adriamycin]	–	–	–	–	–	–	–	–	–	–	–
–	–	–	–	–	CC[C@@]1(O)C(=O)OCc2c1cc1n(c2=O)Cc2cc3ccccc3nc2-1 [Camptothecin, camptothecin, reference compound]	0.04 µg/mL (≈ 0.115 µM)	–	> 10 µg/mL	–	–	–	–	–	–	–	–
< 0.006 µg/mL	< 0.006 µg/mL	< 0.006 µg/mL	–	–	CN[C@@H]1C=CC[C@@H]2CN(c3c(F)cc4c(=O)c(C(=O)O)cn(C5CC5)c4c3F)C[C@@H]21.O=C(O)C(F)(F)F (relative stereo) [Compound of Ex.2, 1 - cyclopropyl - 6, 8 - difluoro - 1, 4 - dihydro - 7 - [(1R*, 2R*, 6S*) - 2 - (N - methylamino) - 8 - azabicyclo [4.3.0]non - 3 - en - 8 - yl] - 4 - oxo - 3 - quinolinecarboxylic acid trifluoroacetate]	–	–	–	–	–	–	–	–	–	–	–
–	–	–	–	–	COc1cc([C@@H]2c3cc4c(cc3[C@@H](O[C@@H]3O[C@@H]5CO[C@@H](C)O[C@H]5[C@H](O)[C@H]3O)[C@H]3COC(=O)[C@H]23)OCO4)cc(OC)c1O [Etoposide, etoposide, reference compound]	0.021 µg/mL (≈ 0.0357 µM)	–	–	14.2 days	104%	22.8 days	166%	31.4 days	229%	no effect	Mean survival days P388 (P388; [2]): 12.8 days; T/C % P388 (P388; [2]): 114%; Mean survival days P388 (P388; [3]): 16.6 days; T/C % P388 (P388; [3]): 148%; Mean survival days P388 (P388; [4]): 22.2 days; T/C % P388 (P388; [4]): 198%
< 0.006 µg/mL	< 0.006 µg/mL	< 0.006 µg/mL	–	–	Cl.Nc1c(F)c(N2C[C@H]3CC=C[C@@H](N)[C@H]3C2)c(F)c2c1c(=O)c(C(=O)O)cn2C1CC1 (single isomer, unassigned) [Compound of Ex.13, (-) - 5 - amino - 7 - [(1R*, 2R*, 6S*) 2 - amino - 8 - azabicyclo [4.3.0]non - 3 - en - 8 - yl] - 1 - cyclopropyl - 6, 8 - difluoro - 1, 4 - dihydro - 4 - oxo - 3 - quinolinecarboxylic acid hydrochloride]	0.0015 µg/mL	221 µM	4 µg/mL	–	–	–	–	–	–	–	–
–	–	–	–	–	COc1c(N2C[C@H]3CC=C[C@@H](N)[C@H]3C2)c(F)cc2c(=O)c(C(=O)O)cn(C3CC3)c12 (relative stereo) [Compound of Ex.11, (-) - 7 - [(1R*, 2R*, 6S*) - 2 - amino - 8 - azabicyclo [4.3.0]non - 3 - en - 8 - yl] - 1 - cyclopropyl - 6 - fluoro - 1, 4 - dihydro - 8 - methoxy - 4 - oxo - 3 - quinolinecarboxlic acid hydrochloride]	–	3020 µM	2 µg/mL	25.8 days	188%	> 50.8 days	371%	16.4 days	120%	effective	IC50 (L1210 cells; L1210, 72 h): 0.032 µg/mL

Structure (SMILES)	MIC (S.aureus BB5769)	MIC (S.aureus BB5703)	MIC (S.aureus JS1)	IC50 (P388/V)	IC50 (P388/VCR)	IC50 (L1210 cells; [5])	IC50 (DNA topoisomerase I)	IC₅₀ DNA topoisomerase II (DNA topoisomerase II)	Mean survival days L1210 (L1210; [2])	T/C % L1210 (L1210; [2])	Mean survival days L1210 (L1210; [3])	T/C % L1210 (L1210; [3])	Mean survival days L1210 (L1210; [4])	T/C % L1210 (L1210; [4])	effect at an administration quantity of 0.02 mg/kg (L1210)	other results
N[C@@H]1C=CC[C@@H]2CN(c3c(F)cc4c(=O)c(C(=O)O)cn(C5CC5)c4c3F)C[C@@H]21.O=C(O)C(F)(F)F (relative stereo) [Compound of Ex.1, 7 - [(1R*, 2R*, 6S*) - 2 - amino - 8 - azabicyclo [4.3.0]non - 3 - en - 8 - yl] - 1 - cyclopropyl - 6, 8 - difluoro - 1, 4 - dihydro-4 - oxo - 3 - quinolinecarboxylic acid trifluoroacetate]	< 0.006 µg/mL	< 0.006 µg/mL	< 0.006 µg/mL	–	–	–	–	–	–	–	–	–	–	–	–	–
Cl.N[C@@H]1C=CC[C@@H]2CN(c3c(F)cc4c(=O)c(C(=O)O)cn(C5CC5)c4c3F)C[C@@H]21 (single isomer, unassigned) [Compound of Ex.9, (-) - 7 - [(1R*, 2R*, 6S*) - 2 - amino - 8 - azabicyclo [4.3.0]non - 3 - en - 8 - yl] - 1 - cyclopropyl - 6, 8 - difluoro - 1, 4 - dihydro - 4 - oxo - 3 - quinolinecarboxylic acid hydrochloride]	–	–	–	0.018 µg/mL	0.018 µg/mL	0.019 µg/mL	457 µM	2 µg/mL	31.0 days	226%	32.4 days	236%	21.2 days	155%	effective	death in acute toxicity test [1]: No case of death; Mean survival days P388 (P388; [2]): 12.0 days; T/C % P388 (P388; [2]): 107%; Mean survival days P388 (P388; [3]): 14.0 days; T/C % P388 (P388; [3]): 125%; Mean survival days P388 (P388; [4]): 16.4 days; T/C % P388 (P388; [4]): 146%
